Test results reported in patent US12264134B2 (Merck Sharp & Dohme LLC, priority 2018, dated 2025).

Each compound was assayed against IDO1 (Homo sapiens, UniProt P14902) (assay: IDO1 Cellular Assay in HeLa Cells Stimulated with IFNγ). Conditions: read-out: HeLa Cell Potency, IC50.
Type: cell-based
Description: IDO1 Cellular Assay in HeLa Cells Stimulated with IFNγ
HeLa cells were cultured in complete HeLa culture medium (90% EMEM, 10% heat-inactivated fetal bovine serum) and expanded to about 1×10^9 cells. The cells were then collected and frozen down at 1×10^7 cells/vial in 1 mL frozen medium (90% complete HeLa culture medium, 10% DMSO).
Compounds to be tested were serially diluted in ten 3-fold steps in DMSO starting from 10 mM DMSO stocks in Echo low volume plate(s). Compound dilutions or DMSO alone were then dispensed from the dilution plate(s) into Greiner black 384-well assay plate(s) (catalog #781086, 50 nL/well) using an Echo 550 acoustic liquid handler (Labcyte).
Frozen HeLa cells were thawed and transferred into HeLa assay medium (99% complete HeLa culture medium, 1% Pen/Strep) with 20 mL medium/vial of cells. The cells were spun down at 250 g in a table top centrifuge for 5 min and suspended in same volume of HeLa assay medium. The cells were then counted and adjusted to a density of 2×10^5 cells/mL in HeLa assay medium. Sterile L-tryptophan were added to the cells with final concentration of 300 uM L-tryptophan. A small aliquot (2 mL/plate) of HeLa cells were set aside and were not treated with IFNγ, to serve as the Max-E control.
HeLa cells with and without IFNγ were dispensed to the respective wells of 384-well assay plates containing the compounds. The plates were incubated for about 48 hours at a 37° C., 5% CO2 incubator. Afterwards, 12 μL of 0.5 M methyl isonipecotate in dimethyl sulfoxide were added into each well and the plates were sealed and incubated at 37° C. without CO2 overnight. The plates were centrifuged for 1 min at 200×g. The resulting fluorescence was measured in a Spectramax plate reader (Molecular Devices) with a 400 nm excitation filter and a 510 nm emission filter.
The fluorescence intensity of each well was corrected for the background observed in wells with non-IFNγ-treated cells and was expressed as a fraction of the intensity observed in wells of IFNγ-treated cells and DMSO only. Potencies were calculated by linear least squares fit to the four parameter logistic IC50 equation.

Chain of IDO1 (P14902 whole entry): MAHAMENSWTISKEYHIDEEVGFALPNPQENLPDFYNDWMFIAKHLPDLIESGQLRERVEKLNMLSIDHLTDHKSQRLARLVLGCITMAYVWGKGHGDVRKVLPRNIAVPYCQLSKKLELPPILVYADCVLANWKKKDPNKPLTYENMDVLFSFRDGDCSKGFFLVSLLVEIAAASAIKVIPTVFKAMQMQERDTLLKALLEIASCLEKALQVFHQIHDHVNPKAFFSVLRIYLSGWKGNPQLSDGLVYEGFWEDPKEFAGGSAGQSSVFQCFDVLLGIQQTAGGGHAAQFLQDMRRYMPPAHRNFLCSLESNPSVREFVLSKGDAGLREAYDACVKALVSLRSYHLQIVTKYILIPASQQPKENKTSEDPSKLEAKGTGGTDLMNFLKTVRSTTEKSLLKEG

| Compound | IC50 |
| --- | --- |
| 1-(2-(difluoromethyl)-4-(2,3-dimethylphenyl)piperazin-1-yl)-2-((3bR,4aR)-3-(4-hydroxypiperidine-1-carbonyl)-3b,4,4a,5-tetrahydro-1H-cyclopropa[3,4]cyclopenta[1,2-c]pyrazol-1-yl)ethanone [Example 387] | 205 nM |
| Cc1cccc(N2CCN(C(=O)Cn3nc(C(=O)N4CC[C@@H](O)[C@@H](F)C4)c4c3CC(F)C4)CC2)c1C (mixture of isomers) [Example 417, 1-(4-(2,3-dimethylphenyl)piperazin-1-yl)-2-(5-fluoro-3-((3S,4R)-3-fluoro-4-hydroxypiperidine-1-carbonyl)-5,6-dihydrocyclopenta[c]pyrazol-1(4H)-yl)ethan-1-one] | 27 nM |
| O=C(Cn1nc(C(=O)N2CC[C@H](O)[C@H](F)C2)c2c1CCC2)N1CCN(C2CCc3ccccc32)CC1 (mixture of isomers) [Example 438, 1-(4-(2,3-dihydro-1H-inden-1-yl)piperazin-1-yl)-2-(3-((3R,4S)-3-fluoro-4-hydroxypiperidine-1-carbonyl)-5,6-dihydrocyclopenta[c]pyrazol-1(4H)-yl)ethanone] | 1590 nM |
| Cc1cccc(N2CCN(C(=O)Cn3nc(C(=O)N4CC[C@H](F)[C@@H](O)C4)c4c3CCC4)CC2)c1C (racemic) [Example 208, 1-[4-(2,3-dimethylphenyl)piperazin-1-yl]-2-[3-[rac-(3S,4S)-4-fluoro-3-hydroxy-piperidine-1-carbony]-5,6-dihydro-4H-cyclopenta[c]pyrazol-1-yl]ethanone] | 30.9 nM |
| Cc1cccc(N2CCN(C(=O)Cn3nc(C(=O)N4CC[C@H](O)[C@@H](F)C4)c4c3CC(O)C4)CC2)c1C (mixture of isomers) [Example 414, 1-(4-(2,3-dimethylphenyl)piperazin-1-yl)-2-(3-((3 S,4S)-3-fluoro-4-hydroxypiperidine-1-carbonyl)-5-hydroxy-5,6-dihydrocyclopenta[c]pyrazol-1 (4H)-yl)ethanone] | 381 nM |
| Cc1cccc(N2CCN(C(=O)Cn3nc(C(=O)N4CC[C@H](O)[C@H](F)C4)c4c3CCC4C(F)F)CC2)c1C (single isomer, unassigned) [Example 14] | 43.8 nM |
| Cc1cccc(N2CCN(C(=O)Cn3nc(C(=O)N4CCC(O)CC4)c4c3CCC4C(F)F)CC2)c1C (single isomer, unassigned) [Example 15, 2-[4-(difluoromethyl)-3-(4-hydroxypiperidine-1-carbonyl)-5,6-dihydro-4H-cyclopenta[c]pyrazol-1-yl]-1-[4-(2,3-dimethylphenyl)piperazin-1-yl]ethanone] | 19.9 nM |
| Cc1cccc(N2CCN(C(=O)Cn3nc(C(=O)N4CC[C@@H](N)C(F)(F)C4)c4c3CCC4)CC2)c1C (single isomer, unassigned) [Example 206, [(4R or 4S)-1-[1-[2-[4-(2,3-dimethylphenyl)piperazin-1-yl]-2-oxo-ethyl]-5,6-dihydro-4H-cyclopenta[c]pyrazole-3-carbonyl]-3,3-difluoro-4-piperidyl]ammonium;2,2,2-trifluoroacetate] | 27.9 nM |
| Cc1cccc(N2CCN(C(=O)Cn3nc(C(=O)N4CCC(F)(F)[C@@H](O)C4)c4c3CCC4)CC2)c1C (single isomer, unassigned) [Example 213, 2-[3-[(3S or 3R)-4,4-difluoro-3-hydroxy-piperidine-1-carbonyl]-5,6-dihydro-4H-cyclopenta[c]pyrazol-1-yl]-1-[4-(2,3-dimethylphenyl)piperazin-1-yl]ethanone] | 90.9 nM |
| Cc1cccc(N2CCN(C(=O)Cn3nc(C(=O)N4CC[C@@H](O)[C@@H](F)C4)c4c3C(O)CC4)CC2)c1C (single isomer, unassigned) [Example 422] | 2950 nM |
| O=C(Cn1nc(C(=O)N2CC[C@H](O)[C@H](F)C2)c2c1CCC2)N1CCN(C2CCCc3ccccc32)CC1 (single isomer, unassigned) [Example 427] | > 10000 nM |
| O=C(Cn1nc(C(=O)N2CCC(O)CC2)c2c1CCC2)N1CCN(C2CCCc3ccccc32)CC1 (single isomer, unassigned) [Example 430] | 184 nM |

Next, values leading:

| IC50 | Compound |
| --- | --- |
| 113 nM | Cc1cccc(N2CCN(C(=O)Cn3nc(C(=O)N4CC[C@H](O)[C@H](F)C4)c4c3CCC4C(F)F)CC2)c1C (mixture of isomers) [Example 19, 2-[rac-4-(difluoromethyl)-3-[(3R,4S)-3-fluoro-4-hydroxy-piperidine-1-carbonyl]-5,6-dihydro-4H-cyclopenta[c]pyrazol-1-yl]-1-[4-(2,3-dimethylphenyl)piperazin-1-yl]ethanone] |
| 692 nM | Cc1cccc(N2CCN(C(=O)Cn3nc(C(=O)N4CC[C@@H](O)[C@@H](F)C4)c4c3C(O)CC4)CC2)c1C (mixture of isomers) [Example 421, 1-(4-(2,3-dimethylphenyl)piperazin-1-yl)-2-(3-((3S,4R)-3-fluoro-4-hydroxypiperidine-1-carbonyl)-6-hydroxy-5,6-dihydrocyclopenta[c]pyrazol-1(4H)-yl)ethanone] |
| 92.4 nM | Cc1cccc(N2CCN(C(=O)Cn3nc(C(=O)N4CCC(O)CC4)c4c3CCC4C(F)F)CC2)c1C (racemic) [Example 18, 2-[rac-4-(difluoromethyl)-3-(4-hydroxypiperidine-1-carbonyl)-5,6-dihydro-4H-cyclopenta[c]pyrazol-1-yl]-1-[4-(2,3-dimethylphenyl)piperazin-1-yl]ethanone] |
| 17.1 nM | Cc1cccc(N2CCN(C(=O)Cn3nc(C(=O)N4CC[C@H](O)[C@H](F)C4)c4c3C[C@H]3C[C@@H]43)[C@H]3CCC[C@@H]32)c1C (racemic) [Example 327, 1-[rac-(4aS,7aS or 4aR,7aR)-1-(2,3-dimethylphenyl)-3,4a,5,6,7,7a-hexahydro-2H-cyclopenta[b]pyrazin-4-yl]-2-[(2R,4R)-9-[(3R,4S)-3-fluoro-4-hydroxy-piperidine-1-carbonyl]-7,8-diazatricyclo[4.3.0.02,4]nona-1(6),8-dien-7-yl]ethanone] |
| 13.2 nM | Cc1cccc(N2CCN(C(=O)Cn3nc(C(=O)N4CC[C@H](O)[C@H](F)C4)c4c3CC(C(F)F)C4)CC2)c1C (single isomer, unassigned) [Example 12] |
| 31 nM | Cc1cccc(N2CCN(C(=O)Cn3nc(C(=O)N4CCC(OCCO)CC4)c4c3CCC4C(F)F)CC2)c1C (single isomer, unassigned) [Example 13, 2-[4-(difluoromethyl)-3-[4-(2-hydroxyethoxy)piperidine-1-carbonyl]-5,6-dihydro-4H-cyclopenta[c]pyrazol-1-yl]-1-[4-(2,3-dimethylphenyl)piperazin-1-yl]ethanone] |
| 496 nM | Cc1cccc(N2CCN(C(=O)Cn3nc(C(=O)N4CC[C@H](O)[C@H](F)C4)c4c3C(O)CCC4)CC2)c1C (single isomer, unassigned) [Example 25] |
| 36.8 nM | Cc1cccc(N2CCN(C(=O)Cn3nc(C(=O)N4CC[C@H](N)C(F)(F)C4)c4c3CCC4)CC2)c1C (single isomer, unassigned) [Example 209, [(4S or 4R)-1-[1-[2-[4-(2,3-dimethylphenyl)piperazin-1-yl]-2-oxo-ethyl]-5,6-dihydro-4H-cyclopenta[c]pyrazole-3-carbonyl]-3,3-difluoro-4-piperidyl]ammonium;2,2,2-trifluoroactate] |
| 63.5 nM | Cc1cccc(N2CCN(C(=O)Cn3nc(C(=O)N4CCC(F)(F)[C@H](O)C4)c4c3CCC4)CC2)c1C (single isomer, unassigned) [Example 210, 2-[3-[(3R or 3S)-4,4-difluoro-3-hydroxy-piperidine-1-carbonyl]-5,6-dihydro-4H-cyclopenta[c]pyrazol-1-yl]-1-[4-(2,3-dimethylphenyl)piperazin-1-yl]ethanone] |
| 14 nM | Cc1cccc(N2CCN(C(=O)Cn3nc(C(=O)N4CCC(O)CC4)c4c3C[C@H]3C[C@@H]43)C(C(F)F)C2)c1C (single isomer, unassigned) [Example 386] |
| 341 nM | Cc1cccc(N2CCN(C(=O)Cn3nc(C(=O)N4CC[C@H](O)[C@@H](F)C4)c4c3CC(O)C4)CC2)c1C (single isomer, unassigned) [Example 415] |
| 75.7 nM | Cc1cccc(N2CCN(C(=O)Cn3nc(C(=O)N4CC[C@H](O)[C@@H](F)C4)c4c3CC(O)C4)CC2)c1C (single isomer, unassigned) [Example 416] |
| 195 nM | Cc1cccc(N2CCN(C(=O)Cn3nc(C(=O)N4CC[C@@H](O)[C@@H](F)C4)c4c3C(O)CC4)CC2)c1C (single isomer, unassigned) [Example 423] |
| 302 nM | O=C(Cn1nc(C(=O)N2CC[C@H](O)[C@H](F)C2)c2c1CCC2)N1CCN(C2CCCc3ccccc32)CC1 (single isomer, unassigned) [Example 426] |
| 183 nM | O=C(Cn1nc(C(=O)N2CCC(O)CC2)c2c1CCC2)N1CCN(C2CCCc3ccccc32)CC1 (single isomer, unassigned) [Example 429] |
| 3440 nM | O=C(Cn1nc(C(=O)N2CCC(O)CC2)c2c1CCC2)N1CCN(C2CCCc3ccccc32)CC1 (single isomer, unassigned) [Example 431] |
